{"source": "patent US20040106588A1", "about": "(priority 2002, published 2004)", "key": {"[1]": {"details": "topical, cited from earlier work"}, "colon adenocarcinomas": {"system": "colon adenocarcinomas", "details": "studies referred to by Reddy et al; cited from earlier work"}, "[2]": {"system": "II-4 human squamous cell skin cancer cells", "assay": "In vitro sulforhodamine B surviving fraction study of alpha-DFMO, triamcinolone and diclofenac", "format": "cell-based", "details": "single drug, Day 1 to Day 7", "procedure": "This study was directed to II-4 human squamous cell skin cancer cells.\nThe cell culture was maintained as a monolayer culture. The cells were plated in 96 well microtiter plates on Day 0 of the study. Some of such wells were used as control wells, so no drugs were added thereto. The aforementioned combination of drugs was added to the microtiter test wells on Day 1. On Day 7, the plates were fixed with cold 10% trichloroacetic acid, and then washed four times with distilled water. Each plate was then stained with 0.4% sulforhodamine B. Excess stain was then removed by washing the plate four times with 1% acetic acid. The stained dye is then solubilized with 50 mM Tris. The stained plates were then “read”, i.e., measured for optical density, on an automatic plate reader at 540 nm. A lower optical density corresponds to a smaller volume of cancerous cells, and a higher optical density corresponds to a larger volume of cancerous cells. A surviving fraction factor fs is then computed for the treated well plates by taking the mean optical density of the treated well plates and dividing by the mean optical density of the control well plates.\nAs explained in the aforementioned article by Alberts, et al., a mathematically-derived expected fraction factor (fs*) can be computed for each three-drug combination by multiplying together the individual fraction factors for the three individual drugs. A ratio can then be computed for the actual experimentally-determined fraction factor fs divided by the expected fraction factor fs*, and this ratio is presented in the rightmost column of the table in FIG. 7. […] The lower the ratio, the more synergistic is the combination."}, "II-4 cells in SCID mice": {"system": "II-4 cells in SCID mice", "assay": "Third study: topical alpha-DFMO, triamcinolone or the combination on II-4 tumor volume in SCID mice", "format": "in vivo, mouse", "details": "single agent, topical daily from 24 hours after implantation; alpha-DFMO 5% or 10%, triamcinolone 0.05% or 0.1%; FIG. 6", "procedure": "The control groups received either no treatment (n=4), or the ointment base (hydrophilic ointment, U.S.P. alone (n=4), or the ointment base (hydrophilic ointment, U.S.P. alone (n=4). Treatments were given daily to the tumor-bearing […] skin continuously beginning 24 hours after tumor implantation. Palpable tumors were measured bi-dimensionally using calipers, three times per week, until tumor sizes approximated 1,500 mm^3 (about 1.5 g). The mice were then euthanized."}, "actinic keratoses [3]": {"system": "actinic keratoses", "details": "topical hydrophilic cream, human subjects; cited from earlier work"}, "[4]": {"system": "human lung adenocarcinoma cell line (A549)", "details": "A549, in vitro; cited from earlier work"}, "[5]": {"system": "polyamine de novo synthesis and DNA polymerase", "details": "colon and small intestine; cited from earlier work"}, "[6]": {"system": "cervical intraepithelial neoplasia level III", "details": "cited from earlier work"}, "[7]": {"system": "human colon tumor xenograft (T6) cells", "details": "in vitro; cited from earlier work"}, "[8]": {"assay": "Systemic uptake after topical alpha-DFMO, animal studies", "format": "in vivo", "details": "topical application", "description": "The generic name for alpha-DFMO is eflomithine, which is a racemic mixture of two enantiomers. […] Nonetheless, it may be possible to obtain the advantages of the present invention as described above using only one or the other of the two enantiomers that form the racemic mixture of alpha-DFMO; accordingly, the use of the term “alpha-DFMO” herein should be understood, for purposes of the present patent application, to include both the racemic mixture of the two enantiomers that normally make up alpha-DFMO, as well as each of the two enantiomers that collectively make up the racemic mixture of alpha-DFMO."}, "[9]": {"system": "Human Cervical Epithelial and Cancerous Cell Lines", "details": "in vitro, dose dependent and time dependent, partially through inducing apoptosis; cited from earlier work"}, "UVB-induced skin cancers [10]": {"system": "UVB-induced skin cancers", "details": "topical, acetone vehicle; cited from earlier work"}, "[11]": {"assay": "Skin reactions after topical application in studies treating actinic keratoses", "format": "in vivo, human", "details": "alpha-DFMO alone, without topical steroid or NSAID, past studies", "description": "The new combination also provides a new method for treating vulvar neoplasia which is much more likely to be tolerated than currently available methods. […] Though topical application to the inside of the mouth may be more difficult, it is preferably achieved by providing a thick gel or cream, and applying to the affected area, preferably during the middle of the night when the mouth is dry."}, "UVB-induced skin cancers [12]": {"system": "UVB-induced skin cancers", "details": "p.o.; 38% in placebo treated controls; cited from earlier work"}, "actinic keratoses [13]": {"system": "actinic keratoses", "details": "0.5% cream added to topical fluorouracil; cited from earlier work"}, "[14]": {"details": "0.06 to 1.0 g/m^2 per day for 30 days"}}, "note": "Where two headings read alike, the source gives them in different places.", "data": [{"smiles": "O=c1[nH]cc(F)c(=O)[nH]1", "note": "[5-FU, 5-fluorouracil]", "values": [{"measurement": "tolerability", "setting": "[1]; in the vagina", "result": "relatively well tolerated"}, {"measurement": "tolerability", "setting": "[1]; on the vulva", "result": "extremely poorly tolerated"}]}, {"smiles": "CC(=O)Oc1ccccc1C(=O)O", "note": "[aspirin]", "values": [{"measurement": "effect on colon adenocarcinomas", "setting": "colon adenocarcinomas", "result": "inhibited colon adenocarcinomas"}]}, {"smiles": "O=C(O)Cc1ccccc1Nc1c(Cl)cccc1Cl", "note": "[diclofenac]", "values": [{"measurement": "surviving fraction factor fs", "setting": "[2]; 150 μM", "result": 0.703}, {"measurement": "surviving fraction factor fs", "setting": "[2]; 175 μM", "result": 0.518}]}, {"smiles": "CC1=C(CC(=O)O)c2cc(F)ccc2/C1=C\\c1ccc([S+](C)[O-])cc1", "note": "(centres unmarked) [sulindac]", "values": [{"measurement": "effect on colon adenocarcinomas", "setting": "colon adenocarcinomas", "result": "inhibited colon adenocarcinomas"}]}, {"smiles": "Cc1c(-c2cnccn2)ssc1=S", "note": "[oltipraz]", "values": [{"measurement": "effect on colon adenocarcinomas", "setting": "colon adenocarcinomas", "result": "inhibited colon adenocarcinomas"}]}, {"smiles": "NCCC[C@](N)(C(=O)O)C(F)F", "note": "(racemic) [alpha-DFMO, Alpha-Difluoromethylornithine]", "values": [{"measurement": "rate of tumor growth (tumor volume over fifty days)", "setting": "II-4 cells in SCID mice", "result": "decreases the rate of tumor growth"}, {"measurement": "number of AKs on the arms", "setting": "actinic keratoses [3]", "result": "reduced the number of AKs"}, {"measurement": "growth inhibition", "setting": "[4]", "result": "dose-dependent growth-inhibitory effect"}, {"measurement": "DMH-induced activation of polyamine de novo synthesis and DNA polymerase", "setting": "[5]", "result": "completely prevented"}, {"measurement": "overall response rate", "setting": "[6]; 0.06 to 1.0 g/m^2 per day for 30 days, 30 women", "result": 50, "unit": "%"}, {"measurement": "patients experiencing a complete response", "setting": "[6]; [14]", "result": "five out of thirty"}, {"measurement": "patients experiencing a partial response (reduction to levels I or II)", "setting": "[6]; [14]", "result": "ten out of thirty"}, {"measurement": "toxicity", "setting": "[6]; [14]", "result": "minimal toxicity"}, {"measurement": "dose down to which serum polyamine modulation was significant", "setting": "[6]; serum", "result": 0.125, "unit": "g/m^2 per day"}, {"measurement": "dose level down to which tissue polyamine modulation was significant", "setting": "[6]; tissue", "result": 0.5, "unit": "g/m^2 per day"}, {"measurement": "growth inhibition", "setting": "[7]", "result": "dose-dependent growth-inhibitory effect"}, {"measurement": "surviving fraction factor fs", "setting": "[2]; 50 μM", "result": 0.749}, {"measurement": "surviving fraction factor fs", "setting": "[2]; 75 μM", "result": 0.807}, {"measurement": "systemic uptake", "setting": "[8]", "result": "negligible systemic uptake"}, {"measurement": "growth of cervical pre-cancerous and cancerous cells", "setting": "[9]", "result": "inhibits the growth"}, {"measurement": "UVB-induced skin cancers", "setting": "UVB-induced skin cancers [10]", "result": "dramatically reduced"}, {"measurement": "effect on colon adenocarcinomas", "setting": "colon adenocarcinomas", "result": "inhibited colon adenocarcinomas"}, {"measurement": "incidence of skin reactions", "setting": "[11]", "result": "~20", "unit": "%"}, {"measurement": "UVB-induced skin cancers in treated animals", "setting": "UVB-induced skin cancers [12]", "result": 9, "unit": "%"}]}, {"smiles": "CC(C)Cc1ccc(C(C)C(=O)O)cc1", "note": "(centres unmarked) [ibuprofen]", "values": [{"measurement": "effect on colon adenocarcinomas", "setting": "colon adenocarcinomas", "result": "inhibited colon adenocarcinomas"}]}, {"smiles": "CN1C(C(=O)Nc2ccccn2)=C(O)c2ccccc2S1(=O)=O", "note": "[piroxicam]", "values": [{"measurement": "effect on colon adenocarcinomas", "setting": "colon adenocarcinomas", "result": "inhibited colon adenocarcinomas"}]}, {"smiles": "CC1(C)O[C@@H]2C[C@H]3[C@@H]4CCC5=CC(=O)C=C[C@]5(C)[C@@]4(F)[C@@H](O)C[C@]3(C)[C@]2(C(=O)CO)O1", "note": "[triamcinolone, triamcinolone acetonide]", "values": [{"measurement": "rate of tumor growth (tumor volume over fifty days)", "setting": "II-4 cells in SCID mice", "result": "decreases the rate of tumor growth"}, {"measurement": "surviving fraction factor fs", "setting": "[2]; 100 μM", "result": 0.999}, {"measurement": "surviving fraction factor fs", "setting": "[2]; 150 μM", "result": 0.999}, {"measurement": "surviving fraction factor fs", "setting": "[2]; 200 μM", "result": 0.872}, {"measurement": "effect on inflammatory response to fluorouracil", "setting": "actinic keratoses [13]", "result": "reduce inflammatory response"}, {"measurement": "effect on the effectiveness of fluorouracil", "setting": "actinic keratoses [13]", "result": "did not alter the effectiveness of the fluorouracil"}]}, {"smiles": "C=CCSSCC=C", "note": "[diallyl disulfide]", "values": [{"measurement": "effect on colon adenocarcinomas", "setting": "colon adenocarcinomas", "result": "inhibited colon adenocarcinomas"}]}]}
